In PubChem BioAssay (NCI):
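Growth conditions: 96-well plates. Treatment: test compound, 48 hours, 5 concentrations. Analysis: linear interpolation between bracketing concentrations; unreached endpoints set to highest concentration. Abbreviation: GI50, concentration required for 50% inhibition of growth. TGI: total growth inhibition.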

Key:
Test in all cases: growth of human tumour cells (NCI), 48 h
[1] = system: 786-0 renal
[2] = system: A498 renal
[3] = system: A549 NSCLC
[4] = system: ACHN renal
[5] = system: BT-549 breast
[6] = system: CAKI-1 renal
[7] = system: CCRF-CEM leukemia
[8] = system: COLO 205 colon
[9] = system: DU-145 prostate
[10] = system: HCC-2998 colon
[11] = system: HCT-116 colon
[12] = system: HCT-15 colon
[13] = system: HL-60(TB) leukemia
[14] = system: HOP-62 NSCLC
[15] = system: HOP-92 NSCLC
[16] = system: HS 578T breast
[17] = system: HT29 colon
[18] = system: IGROV1 ovarian
[19] = system: K-562 leukemia
[20] = system: KM12 colon
[21] = system: LOX IMVI melanoma
[22] = system: M14 melanoma
[23] = system: MALME-3M melanoma
[24] = system: MCF7 breast
[25] = system: MDA-MB-231 breast
[26] = system: MDA-MB-435
[27] = system: MOLT-4 leukemia
[28] = system: NCI-H226 lung
[29] = system: NCI-H23 lung
[30] = system: NCI-H460 lung
[31] = system: NCI-H522 lung
[32] = system: NCI/ADR-RES ovarian
[33] = system: OVCAR-3 ovarian
[34] = system: OVCAR-4 ovarian
[35] = system: OVCAR-5 ovarian
[36] = system: OVCAR-8 ovarian
[37] = system: PC-3 prostate
[38] = system: RPMI-8226 leukemia
[39] = system: RXF 393 renal
[40] = system: SF-268 CNS
[41] = system: SF-295 CNS
[42] = system: SF-539 CNS
[43] = system: SK-MEL-2 melanoma
[44] = system: SK-MEL-28 melanoma
[45] = system: SK-MEL-5 melanoma
[46] = system: SK-OV-3 ovarian
[47] = system: SN12C renal
[48] = system: SNB-19 CNS
[49] = system: SNB-75 CNS
[50] = system: SR leukemia
[51] = system: SW-620 colon
[52] = system: T-47D breast
[53] = system: TK-10 renal
[54] = system: U251 CNS
[55] = system: UACC-257 melanoma
[56] = system: UACC-62 melanoma
[57] = system: UO-31 renal

For `O=C(c1ccc(F)c(F)c1Nc1ccc(I)cc1F)N1CC(O)([C@H]2CCCCN2)C1`, the GI50 [1] was 7.72 µM, the TGI [1] was 21.7 µM and the GI50 [2] was 1.11 µM. It also gave a TGI [2] of 3.31 µM, a GI50 [3] of 2.37 µM and a TGI [3] of 18 µM. The GI50 [4] was 1.86 µM, the TGI [4] was 15.8 µM and the GI50 [5] was 10.9 µM. The TGI [5] was 23.9 µM, the GI50 [6] was 6.28 µM and the TGI [6] was 20.3 µM. For the same compound, the GI50 [7] was 12.5 µM, the TGI [7] was 29.4 µM and the GI50 [8] was 0.0735 µM. It also gave a TGI [8] of 4.1 µM, a GI50 [9] of 9.76 µM and a TGI [9] of 22.3 µM. For the same compound, the GI50 [10] was 0.223 µM, the TGI [10] was 2.62 µM and the GI50 [11] was 0.649 µM. It also gave a TGI [11] of 11.7 µM, a GI50 [12] of 4.81 µM and a TGI [12] of 19.3 µM. The GI50 [13] was 0.173 µM, the TGI [13] was 5.71 µM and the GI50 [14] was 1.97 µM. The TGI [14] was 17.3 µM, the GI50 [15] was 0.406 µM and the TGI [15] was 2.77 µM. The GI50 [16] was 9.74 µM, the TGI [16] was 33.7 µM and the GI50 [17] was 0.0894 µM. For the same compound, the TGI [17] was 10.9 µM, the GI50 [18] was 1.43 µM and the TGI [18] was 13.9 µM. It also gave a GI50 [19] of 3.53 µM, a TGI [19] of 13.5 µM and a GI50 [20] of 1.12 µM. For the same compound, the TGI [20] was 14 µM, the GI50 [21] was 1.05 µM and the TGI [21] was 5.49 µM. The GI50 [22] was 0.087 µM, the TGI [22] was 2.52 µM and the GI50 [23] was 0.019 µM. It also gave a TGI [23] of 0.0976 µM, a GI50 [24] of 6.56 µM and a TGI [24] of 21.3 µM. The GI50 [25] was 0.579 µM, the TGI [25] was 5.26 µM and the GI50 [26] was 0.161 µM. The TGI [26] was 15.8 µM, the GI50 [27] was 8.46 µM and the TGI [27] was 23.3 µM. The GI50 [28] was 4.8 µM, the TGI [28] was 22.8 µM and the GI50 [29] was 1.09 µM. For the same compound, the TGI [29] was 13.1 µM, the GI50 [30] was 4.19 µM and the TGI [30] was 20.2 µM. For the same compound, the GI50 [31] was 8.01 µM, the TGI [31] was 22.9 µM and the GI50 [32] was 8.74 µM. For the same compound, the TGI [32] was 23 µM, the GI50 [33] was 12.1 µM and the TGI [33] was 25.2 µM. The GI50 [34] was 3.81 µM, the TGI [34] was 17.7 µM and the GI50 [35] was 0.914 µM. For the same compound, the TGI [35] was 15.5 µM, the GI50 [36] was 12 µM and the TGI [36] was 26.9 µM. For the same compound, the GI50 [37] was 9.68 µM, the TGI [37] was 22.3 µM and the GI50 [38] was 4.03 µM. The TGI [38] was 20.8 µM, the GI50 [39] was 2.08 µM and the TGI [39] was 8.76 µM. For the same compound, the GI50 [40] was 9.83 µM, the TGI [40] was 23.4 µM and the GI50 [41] was 14.5 µM. The TGI [41] was 28.9 µM, the GI50 [42] was 10.2 µM and the TGI [42] was 22.8 µM. It also gave a GI50 [43] of 0.135 µM, a TGI [43] of 0.702 µM and a GI50 [44] of 0.0953 µM. It also gave a TGI [44] of 3.45 µM, a GI50 [45] of 0.668 µM and a TGI [45] of 6.06 µM. It also gave a GI50 [46] of 8.15 µM, a TGI [46] of 21.1 µM and a GI50 [47] of 3.96 µM. The TGI [47] was 19.7 µM, the GI50 [48] was 8.08 µM and the TGI [48] was 22.8 µM. It also gave a GI50 [49] of 5.96 µM, a TGI [49] of 20.5 µM and a GI50 [50] of 3.94 µM. For the same compound, the TGI [50] was 17.8 µM, the GI50 [51] was 0.34 µM and the TGI [51] was 15 µM. For the same compound, the GI50 [52] was 11.6 µM, the TGI [52] was 26 µM and the GI50 [53] was 1.4 µM. It also gave a TGI [53] of 15.3 µM, a GI50 [54] of 3.5 µM and a TGI [54] of 18.9 µM. For the same compound, the GI50 [55] was 0.08 µM, the TGI [55] was 0.472 µM and the GI50 [56] was 0.097 µM. The TGI [56] was 2.92 µM, the GI50 [57] was 1.42 µM and the TGI [57] was 13.9 µM.
